{
  "source": "patent EP0505047B1",
  "about": "“Rearranged taxol compounds and method of using in testing of in vivo activity” (VIRGINIA TECH INTELLECTUAL PROPERTIES, INC., priority 1991, dated 1992)",
  "key": {"tubulin": {"system": "tubulin", "assay": "tubulin depolymerization assay", "type": "biochemical", "settings": "for IC50: in vitro, read-out: ID₅₀(µM) in tubulin depolymerization assay", "source_text": "Taxol (1), the Meerwein product (4), the acetyl chloride product (7), and A-Nor-Taxol (10) were also subjected to tubulin depolymerization assays with the results presented in Table XVI below."}, "KB cells": {"system": "KB cells", "assay": "KB cell culture assay", "type": "cell-based", "settings": "ED₅₀ of less than 4.0 indicates activity; for EC50: Homo sapiens, read-out: ED⁵⁰ (µg/ml) cell culture", "description": "Taxol (1), the Meerwein product (4), the acetyl chloride product (7), and A-nor-taxol (10) were tested in KB cell culture assays. […]"}},
  "data": [
    {"compound": "C=C(C)C12CC(OC(=O)C(O)C(NC(=O)c3ccccc3)c3ccccc3)C(C)=C1C(OC(C)=O)C(=O)C1(C)C(O)CC3OCC3(OC(C)=O)C1C2OC(=O)c1ccccc1", "note": "(stereo not drawn) [A-Nortaxol (10), A-Nortaxol]", "values": [
      {"measurement": "IC50", "setting": "tubulin", "result": 0.9, "unit": "µM"},
      {"measurement": "activity in the tubulin depolymerization assay compared with taxol", "setting": "tubulin; result in words", "result": "very similar to taxol"},
      {"measurement": "EC50", "setting": "KB cells", "result": 2, "unit": "µg/mL"}
    ]},
    {"compound": "CC(=O)O[C@H]1C(=O)[C@@]2(C)[C@H]([C@H](OC(=O)c3ccccc3)[C@]3(O)C[C@H](OC(=O)[C@H](O)[C@@H](NC(=O)c4ccccc4)c4ccccc4)C(C)=C1C3(C)C)[C@]1(OC(C)=O)CO[C@@H]1C[C@@H]2O", "note": "[Taxol (1), taxol]", "values": [
      {"measurement": "IC50", "setting": "tubulin", "result": 0.3, "unit": "µM"},
      {"measurement": "EC50", "setting": "KB cells", "result": "1e-05", "unit": "µg/mL"}
    ]},
    {"compound": "acetylated A-Nor-D-seco-taxol [Acetyl Chloride product (7)]", "values": [
      {"measurement": "ED⁵⁰ (µg/ml) cell culture", "setting": "KB cells", "result": 2.5, "unit": "µg/mL"}
    ]}
  ]
}
